Tested on: Gardnerella vaginalis - clinical strain
Experiment: Determination of the MIC value of totarol, broth dilution in 96-well plates with OD and quantitative culture
Format: cell-based
Details: for OD, average of 3 measurements: 620 nm
Protocol: Test of antibacterial activity of totarol using DMI (dimethylisosorbide) as a solvent.
A suspension of 0.5 McF in physiological saline (suspension density 10^8 cfu/ml) was prepared from a 24-hour culture of a standard strain. 1 ml of the suspension was collected to 9 ml of a TSB broth ([…]). Suspensions with a dilution of 10^−6 were prepared in the described way. A suspension with a cell density of 10^5 cfu/ml was selected for further investigations. For each strain, 2 96-well plates were prepared: the first one was intended for the OD measurement, the second one—for quantitative culture on solid media. • A/ to wells B1-D1, B2-D2 and B-D 4-11, 100 µl of the broth were added; • B/ to wells B3-D3, 200 µl of the broth were added; • C/ to wells B1-D1, 1 µl of stock I was added; • D/ to wells B2-D2, 1 µl of stock II was added; • E/ to wells B3-D3, 2 µl of stock III were added. Using a multichannel pipette, 100 µl of the sample were collected from each of the B3-D3 wells and placed in wells B4-D4 (mixing by sucking the content in and letting it out for 5 times). The pipette tips were replaced and 100 µl of the content were collected from of the B4-D4 wells, and placed in wells B5-D5, mixing as previously. These operations were repeated through the wells B11-D11. The content in the B11-D11 wells was mixed, and 100 µl of the fluid were collected and discarded. This way, a series of dilutions of totarol samples in DMI in the range of 0.32% to 0.0004% was obtained. Then, 100 µl of a corresponding bacterial culture were added to the wells B, C, D 1-11. In consequence, a change in the final concentration range occurred, to 0.16%-0.0002%. Control Preparation: • Negative control: 100 µl of the broth+1 pl DMI were added to the Al well. • Positive control (I): 100 µl of the broth with the bacterial culture were added to the wells E1-G1. • Diluent positive control (II): 100 µl of the broth with the bacterial culture+1 pl DMI were added to the wells E2-G2. The OD value in the individual wells was read at the wavelength of 620 nm (read time 0). From the second 96-well plate, a culture was inoculated by a quantitative method from every dilution onto a well with a proper solid medium, and incubated for 24 h at 37° C. under aerobic or anaerobic conditions, depending on the strain. The plates were incubated under aerobic conditions or in an atmosphere of an elevated CO2 concentration (for the strains requiring it) in an incubator at 37° C. The OD was read after 8 h, 16 h, and 24 h, respectively. Before every OD measurement, the contents of the wells were mixed delicately. In parallel to the OD readout, cultures we inoculated from the second 96-well plate, from every dilution, into plates with a proper solid medium, and incubated for 24 h at 37° C., under aerobic or anaerobic conditions. For the analysis of the experimental results, an average value of the OD measurement obtained from three repetitions in the individual times (0, 8, 16, and 24 h) for the individual microbes (Gardnerella vaginalis, Streptococcus agalactiae, Enterococcus faecalis, Lactobacillus gasseri/plantarum) was taken. Additionally, the number of bacteria grown on solid media was taken into account. The results of the tests confirm the specific, concentration-dependent selectiveness, and the high antibacterial effectiveness of totarol against the pathogenic microorganisms: Gardnerella vaginalis, Streptococcus agalactiae, Enterococcus faecalis at low MIC values safe for bacteria of the Lactobacillus genus.

Compound: CC(C)c1c(O)ccc2c1CC[C@H]1C(C)(C)CCC[C@]21C [Totarol, totarol]
- MIC value (G. vaginalis): 0.005%
- difference in values of MIC concentrations (bacilli of the Lactobacillus genus versus Gardnerella vaginalis): approximately 10 fold
- viable count by quantitative culture (cfu/ml) (totarol 0.0002%, 0 h): 1.5 × 10^5 cfu/ml
- OD, average of 3 measurements (totarol 0.0002%, 0 h): 0.313
- viable count by quantitative culture (cfu/ml) (totarol 0.0002%, 8 h): 2 × 10^5 cfu/ml
- OD, average of 3 measurements (totarol 0.0002%, 8 h): 0.328
- viable count by quantitative culture (cfu/ml) (totarol 0.0002%, 16 h): 2 × 10^5 cfu/ml
- OD, average of 3 measurements (totarol 0.0002%, 16 h): 0.364
- viable count by quantitative culture (cfu/ml) (totarol 0.0002%, 24 h): 2.2 × 10^5 cfu/ml
- OD, average of 3 measurements (totarol 0.0002%, 24 h): 0.398
- viable count by quantitative culture (cfu/ml) (totarol 0.0004%, 0 h): 2.2 × 10^5 cfu/ml
- OD, average of 3 measurements (totarol 0.0004%, 0 h): 0.326
- viable count by quantitative culture (cfu/ml) (totarol 0.0004%, 8 h): 2 × 10^5 cfu/ml
- OD, average of 3 measurements (totarol 0.0004%, 8 h): 0.334
- viable count by quantitative culture (cfu/ml) (totarol 0.0004%, 16 h): 4.9 × 10^5 cfu/ml
- OD, average of 3 measurements (totarol 0.0004%, 16 h): 0.362
- viable count by quantitative culture (cfu/ml) (totarol 0.0004%, 24 h): 3.9 × 10^5 cfu/ml
- OD, average of 3 measurements (totarol 0.0004%, 24 h): 0.390
- viable count by quantitative culture (cfu/ml) (totarol 0.0007%, 0 h): 9 × 10^4 cfu/ml
- OD, average of 3 measurements (totarol 0.0007%, 0 h): 0.315
- viable count by quantitative culture (cfu/ml) (totarol 0.0007%, 8 h): 6 × 10^4 cfu/ml
- OD, average of 3 measurements (totarol 0.0007%, 8 h): 0.307
- viable count by quantitative culture (cfu/ml) (totarol 0.0007%, 16 h): 2.1 × 10^5 cfu/ml
- OD, average of 3 measurements (totarol 0.0007%, 16 h): 0.326
- viable count by quantitative culture (cfu/ml) (totarol 0.0007%, 24 h): 3.8 × 10^5 cfu/ml
- OD, average of 3 measurements (totarol 0.0007%, 24 h): 0.346
- viable count by quantitative culture (cfu/ml) (totarol 0.0013%, 0 h): 1 × 10^5 cfu/ml
- OD, average of 3 measurements (totarol 0.0013%, 0 h): 0.321
- viable count by quantitative culture (cfu/ml) (totarol 0.0013%, 8 h): 2.7 × 10^4 cfu/ml
- OD, average of 3 measurements (totarol 0.0013%, 8 h): 0.314
- viable count by quantitative culture (cfu/ml) (totarol 0.0013%, 16 h): 6.2 × 10^5 cfu/ml
- OD, average of 3 measurements (totarol 0.0013%, 16 h): 0.318
- viable count by quantitative culture (cfu/ml) (totarol 0.0013%, 24 h): 1.2 × 10^5 cfu/ml
- OD, average of 3 measurements (totarol 0.0013%, 24 h): 0.322
- viable count by quantitative culture (cfu/ml) (totarol 0.0025%, 0 h): 1.3 × 10^5 cfu/ml
- OD, average of 3 measurements (totarol 0.0025%, 0 h): 0.312
- viable count by quantitative culture (cfu/ml) (totarol 0.0025%, 8 h): 5 × 10^4 cfu/ml
- OD, average of 3 measurements (totarol 0.0025%, 8 h): 0.311
- viable count by quantitative culture (cfu/ml) (totarol 0.0025%, 16 h): 5.2 × 10^4 cfu/ml
- OD, average of 3 measurements (totarol 0.0025%, 16 h): 0.314
- viable count by quantitative culture (cfu/ml) (totarol 0.0025%, 24 h): 2.3 × 10^4 cfu/ml
- OD, average of 3 measurements (totarol 0.0025%, 24 h): 0.317
- viable count by quantitative culture (cfu/ml) (totarol 0.005%, 0 h): 3.1 × 10^5 cfu/ml
- OD, average of 3 measurements (totarol 0.005%, 0 h): 0.318
- viable count by quantitative culture (cfu/ml) (totarol 0.005%, 8 h): 0 cfu/ml
- OD, average of 3 measurements (totarol 0.005%, 8 h): 0.318
- viable count by quantitative culture (cfu/ml) (totarol 0.005%, 16 h): 0 cfu/ml
- OD, average of 3 measurements (totarol 0.005%, 16 h): 0.323
- viable count by quantitative culture (cfu/ml) (totarol 0.005%, 24 h): 0 cfu/ml
- OD, average of 3 measurements (totarol 0.005%, 24 h): 0.327
- viable count by quantitative culture (cfu/ml) (totarol 0.01%, 0 h): 1.6 × 10^5 cfu/ml
- OD, average of 3 measurements (totarol 0.01%, 0 h): 0.319
- viable count by quantitative culture (cfu/ml) (totarol 0.01%, 8 h): 0 cfu/ml
- OD, average of 3 measurements (totarol 0.01%, 8 h): 0.323
- viable count by quantitative culture (cfu/ml) (totarol 0.01%, 16 h): 0 cfu/ml
- OD, average of 3 measurements (totarol 0.01%, 16 h): 0.325
- viable count by quantitative culture (cfu/ml) (totarol 0.01%, 24 h): 0 cfu/ml
- OD, average of 3 measurements (totarol 0.01%, 24 h): 0.328
- viable count by quantitative culture (cfu/ml) (totarol 0.02%, 0 h): 2.1 × 10^5 cfu/ml
- OD, average of 3 measurements (totarol 0.02%, 0 h): 0.344
- viable count by quantitative culture (cfu/ml) (totarol 0.02%, 8 h): 0 cfu/ml
- OD, average of 3 measurements (totarol 0.02%, 8 h): 0.332
- viable count by quantitative culture (cfu/ml) (totarol 0.02%, 16 h): 0 cfu/ml
- OD, average of 3 measurements (totarol 0.02%, 16 h): 0.333
- viable count by quantitative culture (cfu/ml) (totarol 0.02%, 24 h): 0 cfu/ml
- OD, average of 3 measurements (totarol 0.02%, 24 h): 0.334
- viable count by quantitative culture (cfu/ml) (totarol 0.04%, 0 h): 3.7 × 10^5 cfu/ml
- OD, average of 3 measurements (totarol 0.04%, 0 h): 0.460
- viable count by quantitative culture (cfu/ml) (totarol 0.04%, 8 h): 0 cfu/ml
- OD, average of 3 measurements (totarol 0.04%, 8 h): 0.416
- viable count by quantitative culture (cfu/ml) (totarol 0.04%, 16 h): 0 cfu/ml
- OD, average of 3 measurements (totarol 0.04%, 16 h): 0.411
- viable count by quantitative culture (cfu/ml) (totarol 0.04%, 24 h): 0 cfu/ml
- OD, average of 3 measurements (totarol 0.04%, 24 h): 0.379
- viable count by quantitative culture (cfu/ml) (totarol 0.08%, 0 h): 6.1 × 10^5 cfu/ml
- OD, average of 3 measurements (totarol 0.08%, 0 h): 0.740
- viable count by quantitative culture (cfu/ml) (totarol 0.08%, 8 h): 0 cfu/ml
- OD, average of 3 measurements (totarol 0.08%, 8 h): 0.523
- viable count by quantitative culture (cfu/ml) (totarol 0.08%, 16 h): 0 cfu/ml
- OD, average of 3 measurements (totarol 0.08%, 16 h): 0.455
- viable count by quantitative culture (cfu/ml) (totarol 0.08%, 24 h): 0 cfu/ml
- OD, average of 3 measurements (totarol 0.08%, 24 h): 0.441
- viable count by quantitative culture (cfu/ml) (totarol 0.16%, 0 h): 1.4 × 10^5 cfu/ml
- OD, average of 3 measurements (totarol 0.16%, 0 h): 0.822
- viable count by quantitative culture (cfu/ml) (totarol 0.16%, 8 h): 0 cfu/ml
- OD, average of 3 measurements (totarol 0.16%, 8 h): 0.564
- viable count by quantitative culture (cfu/ml) (totarol 0.16%, 16 h): 0 cfu/ml
- OD, average of 3 measurements (totarol 0.16%, 16 h): 0.451
- viable count by quantitative culture (cfu/ml) (totarol 0.16%, 24 h): 0 cfu/ml
- OD, average of 3 measurements (totarol 0.16%, 24 h): 0.438
